Measurements: patent publication US20240300923A1, “IRAK4 Inhibitors” (ASTRAZENECA AB, priority 2022, published 2024)

Legend:
IRAK4 [1] = molecular target: T1, IRAK4 (Homo sapiens (Human), UniProt Q9NWZ3); assay: IRAK4 enzyme assay (mass spectrometry readout); assay type: biochemical; details: human recombinant IRAK4 0.2 nM, 3 mM ATP; geometric mean of at least 2 experiments
Method: Potency of IRAK4 Inhibitor Compounds in IRAK4 Enzyme Assay
The inhibitory activity of compounds against IRAK4 were determined in an enzymatic assay using mass spectrometry readout. Ten point half-log compound concentration response curves, with a top concentration of 1 μM or 10 μM, were generated from 10 mM stocks of compound solubilized in DMSO using an Echo 655 (Labcyte Inc) and added to 384 well assay plates (Greiner #781280). To the assay plates, 10 μL of human recombinant IRAK4 protein (Life Technologies #PV4002) diluted to a final concentration of 0.2 nM in assay buffer (50 mM Tris-HCl pH 7.4, 10 mM MgCl, 5 mM glutathione, 0.01% BSA, 3 mM ATP) was added. The enzyme was incubated with the compounds at room temperature for 15 minutes before a peptide substrate ([…], Innovagen custom synthesis, 10 mM in DMSO) was added to each well to a final concentration of 10 μM using an Echo 655 (Labcyte Inc). After two hours at room temperature, the reaction was stopped with 65 μL of 0.4% formic acid (Merck #33015). The unphosphorylated and phosphorylated peptide were measured by LC-MS/MS on a Waters TQ-S mass spectrometer. Peaks were integrated using the TargetLynx software and the ratios between phosphorylated and unphosphorylated peptides were calculated. Curves were fitted and compound potencies determined in Genedata Screener 19 (Genedata AG). IC50 values are the geometric mean of at least 2 experiments.

human cKit kinase = human cKit kinase (Homo sapiens (Human), UniProt P10721); assay: cKit enzyme assay (LANCE, Eurofins CEREP); assay type: biochemical; details: human recombinant enzyme, 50 μM ATP; geometric mean of at least n=2, * = single experiment
human cKit kinase, sequence (P10721 26-976): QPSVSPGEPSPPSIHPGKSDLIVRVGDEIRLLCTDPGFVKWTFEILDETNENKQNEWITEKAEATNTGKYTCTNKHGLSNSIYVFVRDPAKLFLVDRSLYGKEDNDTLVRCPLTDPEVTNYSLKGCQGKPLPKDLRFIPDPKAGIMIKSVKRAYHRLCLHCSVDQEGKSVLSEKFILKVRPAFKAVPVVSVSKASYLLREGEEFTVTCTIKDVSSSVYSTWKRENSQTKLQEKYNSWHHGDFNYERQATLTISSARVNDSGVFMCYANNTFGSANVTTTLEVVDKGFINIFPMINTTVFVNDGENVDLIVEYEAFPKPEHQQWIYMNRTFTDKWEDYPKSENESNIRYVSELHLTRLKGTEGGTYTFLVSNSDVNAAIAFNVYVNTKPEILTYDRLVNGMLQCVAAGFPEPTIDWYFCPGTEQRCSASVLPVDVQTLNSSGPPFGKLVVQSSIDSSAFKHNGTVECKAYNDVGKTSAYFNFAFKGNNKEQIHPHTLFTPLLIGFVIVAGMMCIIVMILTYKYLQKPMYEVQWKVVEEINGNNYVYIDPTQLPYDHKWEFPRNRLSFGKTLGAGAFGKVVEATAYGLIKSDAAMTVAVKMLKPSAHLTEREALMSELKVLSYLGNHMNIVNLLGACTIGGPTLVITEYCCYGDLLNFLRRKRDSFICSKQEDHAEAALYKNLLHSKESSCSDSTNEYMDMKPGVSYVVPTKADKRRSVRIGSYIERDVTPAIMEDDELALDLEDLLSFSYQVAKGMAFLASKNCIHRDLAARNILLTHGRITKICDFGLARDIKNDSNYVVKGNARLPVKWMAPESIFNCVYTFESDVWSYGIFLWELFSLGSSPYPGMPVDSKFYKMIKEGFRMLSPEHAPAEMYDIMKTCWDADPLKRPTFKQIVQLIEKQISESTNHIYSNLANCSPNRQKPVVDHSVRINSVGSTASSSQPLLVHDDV
Method: Potency of IRAK4 Inhibitor Compounds in cKit Enzyme Assay
Evaluation of the effects of the IRAK4 inhibitor compounds on the activity of the human cKit kinase quantified by measuring the phosphorylation of the substrate Ulight-TK peptide using a human recombinant enzyme and the LANCE® detection method at Eurofins CEREP, catalog item 3070, SOP no 1C768: The test compound, reference compound or water (control) are mixed with the enzyme (0.38 ng) in a buffer containing 40 mM Hepes/Tris (pH 7.4), 0.8 mM EGTA/Tris, 8 mM MgCl2, 1.6 mM DTT and 0.008% Tween 20. Thereafter, the reaction is initiated by adding 100 nM of the substrate Ulight-TK peptide and 50 μM ATP, and the mixture is incubated for 30 min at room temperature. For control basal measurements, the enzyme is omitted from the reaction mixture. Following incubation, the reaction is stopped by adding 13 mM EDTA. After 5 min, the anti-phopho-PT66 antibody labeled with europium chelate is added. After 60 more min, the fluorescence transfer is measured at lex=337 nm, lem=620 nm and lem=665 nm using a microplate reader (Envision, Perkin Elmer). The enzyme activity is determined by dividing the signal measured at 665 nm by that measured at 620 nm (ratio). The results are expressed as a percent inhibition of the control enzyme activity. The standard inhibitory reference compound is staurosporine, which is tested in each experiment at several concentrations to obtain an inhibition curve from which its IC50 value is calculated.
Data presented are the geometric mean of at least n=2, or as denoted by an*are obtained from a single experiment. […] Kinase selectivity can be a key determinant of clinical utility as off target toxicity can be reduced or eliminated.

IRAK4 [2] = molecular target: T1, IRAK4; assay: IRAK4 phosphorylation cell assay (IL-1β-stimulated Karpas-299 cells); assay type: cell-based; details: IRAK4 auto-phosphorylation (pIRAK4 Thr345/Ser346) in IL-1β-stimulated Karpas-299 cells; geometric mean of at least 2 experiments
Method: IRAK4 Phosphorylation Cell Assay
The activation of IRAK4 by TLR or IL-1R ligands leads to IRAK4 auto-phosphorylation, which can be prevented by IRAK4 kinase inhibitors. The effect of IRAK4 inhibitor compounds on IRAK4 auto-phosphorylation was assessed in IL-1β-stimulated Karpas-299 cells as a measurement of cellular potency. Karpas-299 cells were cultured in RPMI 1640 (Gibco 61870-010) containing 10% FBS (Gibco #10270). Cells were plated at 2×10^4 cells per well in poly-D-lysine coated 384 well plates (Corning #356663) to which compounds had been added at various concentrations (10 point half log dose response with a final top concentration of 30 μM) using an Echo 655 (Labcyte Inc). Cells were centrifuged (250 g, 4 mins), incubated at 37° C. for 1 h, then stimulated with 22.7 ng/mL recombinant IL-1β (R&D Systems, #201-LB-025) at 37° C. for 10 mins, followed by fixation in 4% paraformaldehyde for 20 mins and permeabilization in ice-cold 70% MeOH in PBS for 30 mins. Cells were washed twice with phosphate-buffered saline (PBS) on a BlueWasher (BlueCatBio) then blocked with PBS containing 10% FBS for 20 mins. Blocking solution was removed with a BlueWasher and cells were stained with anti-pIRAK4 (Thr345/Ser346) (CST, #11927, 1:400) in blocking buffer with 0.05% Tween-20 for 1 h, then washed twice with PBS containing 0.05% Tween-20 on a BlueWasher, followed by staining with a Alexa 647-conjugated secondary anti-rabbit IgG antibody (CST, #4414, 1:2,000) and Hoechst 33342 (Sigma, 1:2,000) in blocking buffer with 0.05% Tween-20 for 30 mins. Finally, the cells were washed twice with PBS containing 0.05% Tween-20 and imaged on an ImageXpress Micro (Molecular Devices) with a 10× air objective using the appropriate filters. Images were analysed in Columbus (PerkinElmer) and the fluorescence intensity per cell from the secondary antibody was quantified. The quantified data were analysed in Genedata Screener 19 (Genedata AG). […] IC50 values are the geometric mean of at least 2 experiments.

T1 sequence (Q9NWZ3 whole entry): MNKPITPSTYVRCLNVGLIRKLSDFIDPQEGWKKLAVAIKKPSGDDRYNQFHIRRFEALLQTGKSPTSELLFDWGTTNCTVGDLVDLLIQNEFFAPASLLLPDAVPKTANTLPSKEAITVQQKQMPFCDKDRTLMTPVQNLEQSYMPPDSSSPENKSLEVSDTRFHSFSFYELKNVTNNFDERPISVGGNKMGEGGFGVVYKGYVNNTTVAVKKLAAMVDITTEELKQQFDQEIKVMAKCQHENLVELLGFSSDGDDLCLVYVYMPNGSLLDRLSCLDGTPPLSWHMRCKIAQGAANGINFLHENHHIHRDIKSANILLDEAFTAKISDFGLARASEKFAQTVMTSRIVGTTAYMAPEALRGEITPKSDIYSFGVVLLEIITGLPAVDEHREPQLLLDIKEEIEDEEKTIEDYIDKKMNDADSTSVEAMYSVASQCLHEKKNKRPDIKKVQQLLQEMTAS

Compound | IC50 (IRAK4 [1]) [nM] | IC50 (human cKit kinase) [nM] | IC50 (IRAK4 [2]) [nM]
COc1cc2nn([C@H]3CC[C@H](n4cncn4)CC3)cc2cc1C(=O)Nc1cccn(C)c1=O [Example 26, 2-((1r,4r)-4-(1H-1,2,4-Triazol-1-yl)cyclohexyl)-6-methoxy-N-(1-methyl-2-oxo-1,2-dihydropyridin-3-yl)-2H-indazole-5-carboxamide] | 2.2 | > 100000 | 38
COc1cc2nn([C@H]3CC[C@H](N(C)C(=O)[C@@H](C)O)CC3)cc2cc1C(=O)Nc1cccn(-c2cnn(C)c2)c1=O [Example 15, 2-((1R,4r)-4-((R)-2-Hydroxy-N-methylpropanamido)cyclohexyl)-6-methoxy-N-(1-(1-methyl-1H-pyrazol-4-yl)-2-oxo-1,2-dihydropyridin-3-yl)-2H-indazole-5-carboxamide] | 0.9 | 2700 | 35
COc1cc2nn([C@H]3CC[C@H](N(C)C(=O)[C@@H](C)O)CC3)cc2cc1C(=O)Nc1cccn(-c2cnn(C)n2)c1=O [Example 17, 2-((1R,4r)-4-((R)-2-Hydroxy-N-methylpropanamido)cyclohexyl)-6-methoxy-N-(1-(2-methyl-2H-1,2,3-triazol-4-yl)-2-oxo-1,2-dihydropyridin-3-yl)-2H-indazole-5-carboxamide] | 1.1 | > 100000 | 34
COc1cc2nn([C@H]3CC[C@H](N(C)C(=O)[C@@H](C)O)CC3)cc2cc1C(=O)Nc1cccn(-c2cn(C)nn2)c1=O [Example 16, 2-((1R,4r)-4-((R)-2-Hydroxy-N-methylpropanamido)cyclohexyl)-6-methoxy-N-(1-(1-methyl-1H-1,2,3-triazol-4-yl)-2-oxo-1,2-dihydropyridin-3-yl)-2H-indazole-5-carboxamide] | 1 | 1400 | 33
COc1cc2nn([C@H]3CC[C@H](N(C)C(C)=O)C[C@H]3C)cc2cc1C(=O)Nc1cccn(C)c1=O [Example 5, 6-Methoxy-N-(1-methyl-2-oxo-1,2-dihydropyridin-3-yl)-2-((1S,2R,4S)-2-methyl-4-(N-methylacetamido)cyclohexyl)-2H-indazole-5-carboxamide] | 0.8 | > 40000 | 24
COc1cc2nn([C@H]3CC[C@H](n4ccnn4)CC3)cc2cc1C(=O)Nc1cccn(C)c1=O [Example 27, 2-((1r,4r)-4-(1H-1,2,3-Triazol-1-yl)cyclohexyl)-6-methoxy-N-(1-methyl-2-oxo-1,2-dihydropyridin-3-yl)-2H-indazole-5-carboxamide] | 1.5 | > 100000 | 39
COc1cc2nn([C@H]3CC[C@H](n4ccccc4=O)CC3)cc2cc1C(=O)Nc1cccn(C)c1=O [Example 22, 6-Methoxy-N-(1-methyl-2-oxo-1,2-dihydropyridin-3-yl)-2-((1r,4r)-4-(2-oxopyridin-1(2H)-yl)cyclohexyl)-2H-indazole-5-carboxamide] | 0.5 | 26200 | 26
COc1cc2nn([C@H]3CC[C@H](N4CCCC4=O)CC3)cc2cc1C(=O)Nc1cccn(C)c1=O [Example 18, 6-Methoxy-N-(1-methyl-2-oxo-1,2-dihydropyridin-3-yl)-2-((1r,4r)-4-(2-oxopyrrolidin-1-yl)cyclohexyl)-2H-indazole-5-carboxamide] | 1 | 2400 | 32

Further lines, results first:

IC50 (IRAK4 [1]) [nM] | IC50 (human cKit kinase) [nM] | IC50 (IRAK4 [2]) [nM] | Compound
0.7 | > 50000 | 30 | COc1cc2nn([C@H]3CC[C@H](N(C)C(=O)[C@@H](C)O)CC3)cc2cc1C(=O)Nc1cccn(C2COC2)c1=O [Example 13, 2-((1R,4r)-4-((R)-2-Hydroxy-N-methylpropanamido)cyclohexyl)-6-methoxy-N-(1-(oxetan-3-yl)-2-oxo-1,2-dihydropyridin-3-yl)-2H-indazole-5-carboxamide]
0.9 | 36300 | 23 | COc1cc2nn([C@H]3CC[C@H](N(C)C(=O)[C@H](C)O)CC3)cc2cc1C(=O)Nc1cccn(C2CC2)c1=O [Example 11, N-(1-Cyclopropyl-2-oxo-1,2-dihydropyridin-3-yl)-2-((1S,4r)-4-((S)-2-hydroxy-N-methylpropanamido)cyclohexyl)-6-methoxy-2H-indazole-5-carboxamide]
0.6 | 58200 | 24 | COc1cc2nn([C@H]3CC[C@H](N(C)C(=O)[C@@H](C)O)CC3)cc2cc1C(=O)Nc1cccn(C2CC2)c1=O [Example 12, N-(1-Cyclopropyl-2-oxo-1,2-dihydropyridin-3-yl)-2-((1R,4r)-4-((R)-2-hydroxy-N-methylpropanamido)cyclohexyl)-6-methoxy-2H-indazole-5-carboxamide]
0.8 | 7000 | 29 | COc1cc2nn([C@H]3CC[C@H](N(C)C(=O)[C@@H](C)O)CC3)cc2cc1C(=O)Nc1cccn(C)c1=O [Example 8, 2-((1R,4r)-4-((R)-2-Hydroxy-N-methylpropanamido)cyclohexyl)-6-methoxy-N-(1-methyl-2-oxo-1,2-dihydropyridin-3-yl)-2H-indazole-5-carboxamide]
